Measured values from ChEMBL document CHEMBL3612045, “3-Benzamides and 3,4,5-trimethoxyphenyl amines as calcium channel blockers” (Bioorg Med Chem, 2015).
pIC50: −log10 of the molar value. Active and inactive are the calls of the source.

How the values were obtained:
[1] = molecular target: T1, Voltage-dependent T-type calcium channel subunit alpha-1G (Homo sapiens, UniProt O43497); assay: Inhibition of Cav3.1 channel (unknown origin) assessed as reduction in peak currents at 10 uM by whole cell patch-clamp method
[2] = molecular target: T1, Voltage-dependent T-type calcium channel subunit alpha-1G; assay: Inhibition of Cav3.1 channel (unknown origin) assessed as reduction in peak currents by whole cell patch-clamp method
[3] = molecular target: T2, Voltage-dependent N-type calcium channel subunit alpha-1B (Homo sapiens, UniProt Q00975); assay: Inhibition of Cav2.2 channel (unknown origin) assessed as reduction in peak currents at 10 uM by whole cell patch-clamp method
Target sequence in this assay (Q00975 whole entry, looked up): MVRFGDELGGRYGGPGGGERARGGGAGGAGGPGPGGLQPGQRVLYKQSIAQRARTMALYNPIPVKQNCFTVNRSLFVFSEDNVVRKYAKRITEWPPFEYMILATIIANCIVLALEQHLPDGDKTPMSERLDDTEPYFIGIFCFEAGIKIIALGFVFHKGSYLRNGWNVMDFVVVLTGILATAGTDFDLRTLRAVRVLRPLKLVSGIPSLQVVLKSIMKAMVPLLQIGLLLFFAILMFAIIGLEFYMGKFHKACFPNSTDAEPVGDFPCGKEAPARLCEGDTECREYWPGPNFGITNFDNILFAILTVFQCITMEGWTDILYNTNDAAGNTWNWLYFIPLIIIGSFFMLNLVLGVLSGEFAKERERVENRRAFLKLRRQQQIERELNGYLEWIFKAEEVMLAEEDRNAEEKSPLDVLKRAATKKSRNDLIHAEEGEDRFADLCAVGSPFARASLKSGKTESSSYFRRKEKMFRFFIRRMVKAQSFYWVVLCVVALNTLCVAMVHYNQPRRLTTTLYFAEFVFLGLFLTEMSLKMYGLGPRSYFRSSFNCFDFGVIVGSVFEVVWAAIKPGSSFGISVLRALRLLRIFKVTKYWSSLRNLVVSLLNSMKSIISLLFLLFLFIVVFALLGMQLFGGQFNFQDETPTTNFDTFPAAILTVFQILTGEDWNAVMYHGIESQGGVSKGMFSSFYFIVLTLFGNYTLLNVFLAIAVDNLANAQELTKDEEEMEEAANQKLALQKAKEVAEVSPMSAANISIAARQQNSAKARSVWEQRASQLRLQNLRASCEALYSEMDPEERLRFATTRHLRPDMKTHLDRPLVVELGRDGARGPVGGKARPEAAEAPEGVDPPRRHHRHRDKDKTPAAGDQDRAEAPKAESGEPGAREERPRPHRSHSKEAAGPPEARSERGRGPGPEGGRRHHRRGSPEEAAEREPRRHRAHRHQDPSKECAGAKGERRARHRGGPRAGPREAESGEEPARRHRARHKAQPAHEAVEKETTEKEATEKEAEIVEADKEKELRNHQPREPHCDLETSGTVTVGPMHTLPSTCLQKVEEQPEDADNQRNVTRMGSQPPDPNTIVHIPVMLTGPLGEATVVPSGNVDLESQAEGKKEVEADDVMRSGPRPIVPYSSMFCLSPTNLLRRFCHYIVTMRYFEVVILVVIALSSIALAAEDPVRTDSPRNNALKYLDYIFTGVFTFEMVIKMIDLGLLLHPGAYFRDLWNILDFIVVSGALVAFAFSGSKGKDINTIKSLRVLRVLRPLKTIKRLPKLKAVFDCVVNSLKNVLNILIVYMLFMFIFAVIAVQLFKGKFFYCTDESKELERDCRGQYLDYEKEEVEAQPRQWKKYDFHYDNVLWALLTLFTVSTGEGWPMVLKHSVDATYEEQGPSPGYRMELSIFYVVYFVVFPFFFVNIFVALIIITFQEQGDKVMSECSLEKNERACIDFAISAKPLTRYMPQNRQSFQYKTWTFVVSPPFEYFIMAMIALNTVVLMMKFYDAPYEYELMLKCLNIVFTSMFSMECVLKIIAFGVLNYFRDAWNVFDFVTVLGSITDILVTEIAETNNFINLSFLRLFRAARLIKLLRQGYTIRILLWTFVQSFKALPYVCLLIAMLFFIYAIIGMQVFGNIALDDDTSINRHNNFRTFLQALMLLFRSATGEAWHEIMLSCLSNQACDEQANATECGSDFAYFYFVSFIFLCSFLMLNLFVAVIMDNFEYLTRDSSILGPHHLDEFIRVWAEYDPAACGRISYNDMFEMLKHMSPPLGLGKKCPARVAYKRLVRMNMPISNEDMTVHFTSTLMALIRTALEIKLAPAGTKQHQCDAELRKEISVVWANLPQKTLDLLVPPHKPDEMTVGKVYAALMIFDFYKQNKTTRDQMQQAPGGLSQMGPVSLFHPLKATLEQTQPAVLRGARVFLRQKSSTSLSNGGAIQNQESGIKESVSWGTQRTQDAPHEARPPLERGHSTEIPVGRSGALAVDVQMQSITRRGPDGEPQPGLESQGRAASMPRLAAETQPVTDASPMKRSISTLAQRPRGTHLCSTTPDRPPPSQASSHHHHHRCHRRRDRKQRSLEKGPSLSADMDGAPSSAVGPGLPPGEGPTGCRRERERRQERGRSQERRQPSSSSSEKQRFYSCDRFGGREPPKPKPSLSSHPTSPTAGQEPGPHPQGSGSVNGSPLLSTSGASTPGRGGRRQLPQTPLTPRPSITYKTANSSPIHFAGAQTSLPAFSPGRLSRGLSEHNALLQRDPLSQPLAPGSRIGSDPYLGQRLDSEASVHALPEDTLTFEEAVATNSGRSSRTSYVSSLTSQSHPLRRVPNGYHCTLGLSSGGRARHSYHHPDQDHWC

Rattus norvegicus [4] = assay: Analgesic activity in Sprague-Dawley rat model of spinal cord injury-induced neuropathic pain assessed as reduction in mechanical allodynia by measuring paw withdrawal threshold at 50 ug dosed intrathecally measured after 30 mins (reference value: 2.8 +/- 0.4 g); format: functional
Rattus norvegicus [5] = assay: Analgesic activity in Sprague-Dawley rat model of spinal cord injury-induced neuropathic pain assessed as reduction in mechanical allodynia by measuring paw withdrawal threshold at 100 ug dosed intrathecally measured after 30 mins (reference value: 2.8 +/- 0.4 g); format: functional
Rattus norvegicus [6] = assay: Analgesic activity in Sprague-Dawley rat model of spinal cord injury-induced neuropathic pain assessed as reduction in mechanical allodynia by measuring paw withdrawal threshold at 10 ug dosed intrathecally measured after 30 mins (reference value: 2.8 +/- 0.4 g); format: functional
Rattus norvegicus [7] = assay: Analgesic activity in Sprague-Dawley rat model of spinal cord injury-induced neuropathic pain assessed as reduction in thermal hyperalgesia by measuring paw withdrawal latency time at 50 ug dosed intrathecally measured after 30 mins (reference value: […]); format: functional
Rattus norvegicus [8] = assay: Analgesic activity in Sprague-Dawley rat model of spinal cord injury-induced neuropathic pain assessed as reduction in thermal hyperalgesia by measuring paw withdrawal latency time at 100 ug dosed intrathecally measured after 30 mins (reference value: […]); format: functional
Rattus norvegicus [9] = assay: Analgesic activity in Sprague-Dawley rat model of spinal cord injury-induced neuropathic pain assessed as reduction in thermal hyperalgesia by measuring paw withdrawal latency time at 10 ug dosed intrathecally measured after 30 mins (reference value: […]); format: functional
[10] = molecular target: T2, Voltage-dependent N-type calcium channel subunit alpha-1B; assay: Inhibition of Cav2.2 channel (unknown origin) assessed as reduction in peak currents by whole cell patch-clamp method
Target sequence in this assay (Q00975 whole entry): as the sequence (Q00975 whole entry, looked up) above

Rattus norvegicus [11] = assay: Effect on hind limb locomotion in Sprague-Dawley rat model of spinal cord injury-induced neuropathic pain assessed as Basso-Beattie-Bresnahan scores at 10 to 100 ug dosed via intrathecal route; format: ADME, organism-based, Hindlimb; settings: in vivo, icv_or_intrathecal

T1 sequence (O43497 whole entry): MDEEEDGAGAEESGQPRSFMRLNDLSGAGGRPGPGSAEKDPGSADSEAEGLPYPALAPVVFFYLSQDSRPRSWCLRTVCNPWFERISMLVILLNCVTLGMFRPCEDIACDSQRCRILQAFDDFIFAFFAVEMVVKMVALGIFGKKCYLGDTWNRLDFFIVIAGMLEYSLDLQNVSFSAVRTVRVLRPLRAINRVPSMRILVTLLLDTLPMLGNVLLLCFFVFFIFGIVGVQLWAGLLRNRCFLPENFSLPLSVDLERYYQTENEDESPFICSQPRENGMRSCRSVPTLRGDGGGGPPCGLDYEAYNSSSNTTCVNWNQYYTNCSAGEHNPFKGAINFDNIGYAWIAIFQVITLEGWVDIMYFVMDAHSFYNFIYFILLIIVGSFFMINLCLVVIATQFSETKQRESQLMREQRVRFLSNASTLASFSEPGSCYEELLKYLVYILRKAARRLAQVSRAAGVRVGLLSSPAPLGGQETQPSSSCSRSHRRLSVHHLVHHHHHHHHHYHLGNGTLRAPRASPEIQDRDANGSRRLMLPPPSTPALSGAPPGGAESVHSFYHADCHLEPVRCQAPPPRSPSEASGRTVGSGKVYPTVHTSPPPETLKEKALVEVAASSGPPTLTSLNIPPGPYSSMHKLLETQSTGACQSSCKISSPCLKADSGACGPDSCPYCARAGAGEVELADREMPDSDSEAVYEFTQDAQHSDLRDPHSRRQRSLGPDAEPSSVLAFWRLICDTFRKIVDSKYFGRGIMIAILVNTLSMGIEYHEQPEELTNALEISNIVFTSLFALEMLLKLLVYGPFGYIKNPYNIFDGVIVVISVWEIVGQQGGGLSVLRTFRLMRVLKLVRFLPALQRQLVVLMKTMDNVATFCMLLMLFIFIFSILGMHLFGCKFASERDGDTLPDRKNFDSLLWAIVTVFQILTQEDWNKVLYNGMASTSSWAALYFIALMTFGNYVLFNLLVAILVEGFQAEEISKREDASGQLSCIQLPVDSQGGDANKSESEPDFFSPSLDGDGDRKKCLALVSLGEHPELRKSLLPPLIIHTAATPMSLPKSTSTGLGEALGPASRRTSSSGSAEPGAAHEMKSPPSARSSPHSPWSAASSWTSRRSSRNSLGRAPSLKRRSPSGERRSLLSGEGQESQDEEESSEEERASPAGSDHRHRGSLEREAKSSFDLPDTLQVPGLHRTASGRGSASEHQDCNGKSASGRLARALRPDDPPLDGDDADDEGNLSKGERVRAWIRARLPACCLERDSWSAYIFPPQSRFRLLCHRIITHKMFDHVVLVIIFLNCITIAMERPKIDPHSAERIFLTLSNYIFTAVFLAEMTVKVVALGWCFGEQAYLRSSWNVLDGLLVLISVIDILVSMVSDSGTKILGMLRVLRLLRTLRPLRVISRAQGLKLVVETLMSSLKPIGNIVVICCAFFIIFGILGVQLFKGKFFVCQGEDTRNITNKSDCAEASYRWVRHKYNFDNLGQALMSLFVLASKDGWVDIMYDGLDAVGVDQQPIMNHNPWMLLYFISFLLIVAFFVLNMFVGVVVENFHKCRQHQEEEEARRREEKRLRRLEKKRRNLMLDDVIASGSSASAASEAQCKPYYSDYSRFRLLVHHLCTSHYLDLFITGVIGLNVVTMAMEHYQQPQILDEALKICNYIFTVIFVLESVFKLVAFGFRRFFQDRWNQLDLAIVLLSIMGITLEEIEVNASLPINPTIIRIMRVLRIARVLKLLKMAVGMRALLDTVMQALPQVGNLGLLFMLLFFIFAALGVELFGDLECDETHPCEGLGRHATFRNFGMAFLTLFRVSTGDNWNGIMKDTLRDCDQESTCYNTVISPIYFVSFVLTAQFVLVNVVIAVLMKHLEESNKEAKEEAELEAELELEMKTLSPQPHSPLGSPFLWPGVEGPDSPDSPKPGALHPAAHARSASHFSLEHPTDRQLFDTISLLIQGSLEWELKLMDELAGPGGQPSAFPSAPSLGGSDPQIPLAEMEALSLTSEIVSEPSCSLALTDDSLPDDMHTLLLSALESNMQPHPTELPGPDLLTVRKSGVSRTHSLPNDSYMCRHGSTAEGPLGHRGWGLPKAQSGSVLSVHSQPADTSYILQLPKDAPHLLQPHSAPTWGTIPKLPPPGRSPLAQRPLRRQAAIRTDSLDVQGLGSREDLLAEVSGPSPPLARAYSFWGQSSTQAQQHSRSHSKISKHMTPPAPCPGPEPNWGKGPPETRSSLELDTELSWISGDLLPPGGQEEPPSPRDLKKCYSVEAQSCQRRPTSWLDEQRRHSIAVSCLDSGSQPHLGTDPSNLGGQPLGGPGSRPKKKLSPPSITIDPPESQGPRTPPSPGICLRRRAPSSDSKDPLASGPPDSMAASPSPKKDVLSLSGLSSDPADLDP

SMILES | inhibition [1] | pIC50 [2] | inhibition [3] | pIC50 [10] | also measured
N#Cc1ccc(Oc2ccc(-c3ccc(CNc4cccc(C(N)=O)c4)o3)cc2)cc1 | 53% | 5.13 | 21.6% |  | Activity (Rattus norvegicus [4]): inactive; Activity (Rattus norvegicus [5]): inactive; Activity (Rattus norvegicus [6]): inactive; Activity (Rattus norvegicus [7]): inactive; Activity (Rattus norvegicus [8]): inactive; Activity (Rattus norvegicus [9]): inactive
COc1cc(CNCc2ccc(N3CCOCC3)cc2)cc(OC)c1OC | 9.8% |  |  |  | 
COc1cc(CNCc2c[nH]c3ccc(Cl)cc23)cc(OC)c1OC | 64.2% | 5.28 | 75.2% | 5.02 | 
COc1ccc(-c2ccc(CNc3cccc(C(N)=O)c3)o2)cc1Cl | 41.6% |  |  |  | 
NC(=O)c1cccc(NCc2ccc(-c3ccc(Cl)cc3)o2)c1 | 14.5% |  |  |  | 
NC(=O)c1cccc(NCc2ccc(N3CCOCC3)cc2)c1 | 4.1% |  |  |  | 
COc1cc(CNCc2ccc(-c3ccc(Cl)cc3)o2)cc(OC)c1OC | 91.3% | 5.72 | 80.2% | 5.37 | Activity (Rattus norvegicus [4]): 9.16 g; Activity (Rattus norvegicus [5]): 11.1 g; Activity (Rattus norvegicus [6]): 2.6 g; Time (Rattus norvegicus [7]): 8.3 s; Time (Rattus norvegicus [8]): 8.9 s; Time (Rattus norvegicus [9]): 5.8 s; Activity (Rattus norvegicus [11]): Non-toxic
COc1cc(CNCc2ccc(-c3cncnc3)cc2)cc(OC)c1OC | 38.3% |  |  |  | 
NC(=O)c1cccc(NCc2ccc(-c3cccc(C(F)(F)F)c3)o2)c1 | 39.3% |  |  |  | 
COc1ccc(-c2ccc(CNCc3cc(OC)c(OC)c(OC)c3)o2)cc1Cl | 77.6% | 5.62 | 70.6% | 5.23 | 

Continued, in another order:

inhibition [1] | pIC50 [2] | inhibition [3] | pIC50 [10] | SMILES | also measured
25.2% |  |  |  | NC(=O)c1cccc(NCc2cc(-c3ccc(Cl)cc3)on2)c1 | 
60.4% | 5.19 | 54.9% | 5.03 | COc1cc(CNCc2ccc(Oc3ccc(C#N)cc3)cc2)cc(OC)c1OC | 
21.9% |  |  |  | COc1cc(CNCc2ccc(-c3ccncc3)cc2)cc(OC)c1OC | 
86.6% | 5.60 | 81.6% | 5.17 | COc1cc(CNCc2ccc(-c3cccc(C(F)(F)F)c3)o2)cc(OC)c1OC | 
39.9% |  |  |  | NC(=O)c1cccc(NCc2c[nH]c3ccc(Cl)cc23)c1 | 
